Source: patent publication US10336702B2, “Pharmaceutically active compounds” (BERGENBIO ASA, priority 2015, dated 2019)

Columns and labels:
p-Akt2 in WM115 cells = molecular target: T1, p-Akt2 in WM115 cells (Homo sapiens, UniProt P31751); test: Phospho-Akt cellular SureFire assay, p-Akt2 in WM115 cells; format: cell-based; conditions: insulin stimulated, read-out: Biological Assay 2 IC50 (nM) Akt2 WM115
T1 construct: SureFire assays to detect cellular p-Akt1, p-Akt2 and p-Akt3 levels in WM115 cells (Akt2/3) and LNCaP cells (Akt1); endogenous in cells; host or cells: WM115 (ECACC 91061232), insulin-stimulated
T1 sequence (P31751 whole entry): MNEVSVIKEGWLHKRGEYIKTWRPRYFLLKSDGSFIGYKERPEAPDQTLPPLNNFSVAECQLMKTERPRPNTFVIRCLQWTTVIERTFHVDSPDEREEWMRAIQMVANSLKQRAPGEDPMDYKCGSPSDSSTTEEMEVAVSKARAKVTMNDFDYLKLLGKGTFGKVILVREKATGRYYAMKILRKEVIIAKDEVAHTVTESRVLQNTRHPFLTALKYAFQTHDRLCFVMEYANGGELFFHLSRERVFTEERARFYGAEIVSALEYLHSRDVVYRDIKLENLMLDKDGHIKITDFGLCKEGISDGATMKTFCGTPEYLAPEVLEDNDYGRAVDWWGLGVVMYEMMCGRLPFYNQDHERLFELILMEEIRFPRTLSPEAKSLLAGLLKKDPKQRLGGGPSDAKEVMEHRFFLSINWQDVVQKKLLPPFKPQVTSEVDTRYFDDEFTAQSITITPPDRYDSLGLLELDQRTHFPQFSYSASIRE
How it was run: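 Readout is a bead-proximity SureFire assay pairing a pThr308 Akt antibody with a total Akt2 antibody, lysate and beads incubated 2 h plus 2 h at room temperature in the dark. Before lysis, serum-starved WM115 cells received 100 nM insulin (10 min), then test compound (15 min, 0.3% DMSO); IC50 by 4-parameter equation.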

p-Akt3 in WM115 cells = molecular target: T2, p-Akt3 in WM115 cells (Homo sapiens, UniProt Q9Y243); test: Phospho-Akt cellular SureFire assay, p-Akt3 in WM115 cells; format: cell-based; conditions: insulin stimulated, read-out: Biological Assay 2 IC50 (nM) Akt3 WM115
T2 construct: SureFire assays to detect cellular p-Akt1, p-Akt2 and p-Akt3 levels in WM115 cells (Akt2/3) and LNCaP cells (Akt1); endogenous in cells; host or cells: WM115 (ECACC 91061232), insulin-stimulated
T2 sequence (Q9Y243 whole entry): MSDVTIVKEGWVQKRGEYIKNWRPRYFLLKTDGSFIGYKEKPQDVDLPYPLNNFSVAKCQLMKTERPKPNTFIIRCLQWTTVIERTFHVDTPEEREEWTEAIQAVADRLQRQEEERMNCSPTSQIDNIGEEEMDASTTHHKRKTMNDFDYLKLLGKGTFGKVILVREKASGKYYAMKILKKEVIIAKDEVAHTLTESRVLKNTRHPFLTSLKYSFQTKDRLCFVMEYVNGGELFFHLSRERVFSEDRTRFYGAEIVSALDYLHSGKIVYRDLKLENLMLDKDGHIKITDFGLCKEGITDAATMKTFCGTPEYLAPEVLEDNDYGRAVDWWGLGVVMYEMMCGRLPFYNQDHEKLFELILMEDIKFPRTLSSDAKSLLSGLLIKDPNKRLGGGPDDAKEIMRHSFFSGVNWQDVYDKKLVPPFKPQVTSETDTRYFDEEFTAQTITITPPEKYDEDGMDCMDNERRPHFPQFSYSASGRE
How it was run: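 pThr308-Akt3 in lysates was quantified by bead-proximity SureFire detection, pairing a phospho-specific antibody with a total Akt3 antibody. Before lysis, WM115 cells in 0.1% FBS medium were treated for 15 min at 37 °C with compound (final DMSO 0.3%), following a 10 min stimulation with 100 nM insulin. IC50 was obtained by 4-parameter fitting.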

p-Akt1 in LNCaP cells = molecular target: T3, p-Akt1 in LNCaP cells (Homo sapiens, UniProt P31749); test: Phospho-Akt cellular SureFire assay, p-Akt1 in LNCaP cells; format: cell-based; conditions: read-out: Biological Assay 2 IC50 (nM) Akt1 LNCaP
T3 construct: SureFire assays to detect cellular p-Akt1, p-Akt2 and p-Akt3 levels in WM115 cells (Akt2/3) and LNCaP cells (Akt1); endogenous in cells; host or cells: LNCaP (ECACC 89110211)
T3 sequence (P31749 whole entry): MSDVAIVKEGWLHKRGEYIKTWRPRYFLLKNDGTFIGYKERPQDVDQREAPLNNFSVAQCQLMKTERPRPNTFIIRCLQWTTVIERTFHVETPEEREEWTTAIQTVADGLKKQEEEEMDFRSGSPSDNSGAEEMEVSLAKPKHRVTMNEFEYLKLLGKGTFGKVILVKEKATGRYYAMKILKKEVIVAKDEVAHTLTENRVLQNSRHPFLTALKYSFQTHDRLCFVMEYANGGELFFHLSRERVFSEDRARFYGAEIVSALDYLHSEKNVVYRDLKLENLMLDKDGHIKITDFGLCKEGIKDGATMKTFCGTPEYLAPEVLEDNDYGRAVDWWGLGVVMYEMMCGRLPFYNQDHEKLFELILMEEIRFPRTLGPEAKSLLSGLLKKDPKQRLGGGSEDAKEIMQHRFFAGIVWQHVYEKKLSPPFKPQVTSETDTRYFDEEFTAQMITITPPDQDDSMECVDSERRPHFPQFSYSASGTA
How it was run: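 Phospho-Thr308 Akt1 detected by AlphaScreen SureFire proximity beads in LNCaP lysates after 15 min compound treatment at 37 °C in 0.1% FBS medium, unstimulated, 0.3% DMSO. Cells plated at 5×10^4/well overnight; IC50 from a 4-parameter equation.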

Akt2 = molecular target: T4, Akt2 (Homo sapiens, UniProt P31751); test: Akt activation assay (PDK1-mediated activation, LANCE Ultra crosstide TR-FRET), Akt2; format: biochemical; conditions: read-out: Biological Assay 1 IC50 (nM) Akt2
T4 construct: unspecified tag, removed (detagged) (cleaved yes); purchased SignalChem and Proteros (Akt2); Merck Millipore (PDK1) 14-452 (PDK1); none given for Akt2
T4 sequence (P31751 whole entry): as the sequence (P31751 whole entry) above
How it was run: (§1)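 This TR-FRET readout (Eu-anti-phospho-crosstide antibody, 665/615 nm) measured PDK1-driven activation of Akt. Compound was first preincubated with each Akt isoform: Akt1 5 nM; Akt2 15 nM SignalChem or 5 nM Proteros; Akt3 3 nM SignalChem or 5 nM Proteros. Reactions then ran 30 min with 5 nM PDK1, lipid vesicles containing 0.55 µM PtdIns(3,4,5)P3, 100 µM ATP and 100 nM crosstide at pH 7.5, and IC50 came from a 4-parameter equation.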

Akt1 = molecular target: T5, Akt1 (Homo sapiens, UniProt P31749); test: Akt activation assay (PDK1-mediated activation, LANCE Ultra crosstide TR-FRET), Akt1; format: biochemical; conditions: read-out: Biological Assay 1 IC50 (nM) Akt1
T5 construct: unspecified tag, removed (detagged) (cleaved yes); purchased SignalChem and Proteros (Akt1); Merck Millipore (PDK1) 14-452 (PDK1); none given for Akt1
T5 sequence (P31749 whole entry): as the sequence (P31749 whole entry) above
How it was run: as §1

Akt3 = molecular target: T6, Akt3 (Homo sapiens, UniProt Q9Y243); test: Akt activation assay (PDK1-mediated activation, LANCE Ultra crosstide TR-FRET), Akt3; format: biochemical; conditions: read-out: Biological Assay 1 IC50 (nM) Akt3
T6 construct: unspecified tag, removed (detagged) (cleaved yes); purchased SignalChem and Proteros (Akt3); Merck Millipore (PDK1) 14-452 (PDK1); none given for Akt3
T6 sequence (Q9Y243 whole entry): as the sequence (Q9Y243 whole entry) above
How it was run: as §1

IC50 (p-Akt2 in WM115 cells) [nM] | IC50 (p-Akt3 in WM115 cells) [nM] | IC50 (p-Akt1 in LNCaP cells) [nM] | IC50 (Akt2) [nM] | IC50 (Akt1) [nM] | IC50 (Akt3) [nM] | Structure (SMILES)
2000 | 150 | > 30000 | 340 | > 30000 | 42 | NC1(c2ccc(-c3cnc(NC(=O)C[C@H]4CC[C@H](N5CCOC5=O)CC4)cc3-c3ccccc3)cc2)CC1 [Example A51, N-(5-(4-(1-aminocyclopropyl)phenyl)-4-phenylpyridin-2-yl)-2-(trans-4-(2-oxooxazolidin-3-yl)cyclohexyl)acetamide]
5400 | 260 | > 15000 | 5100 | > 30000 | 560 | CN([C@H]1CC[C@H](CC(=O)Nc2cnc(-c3ccc(C(C)(C)N)cc3)c(-c3ccccc3)c2)CC1)S(C)(=O)=O [Example A25, N-(6-(4-(2-aminopropan-2-yl)phenyl)-5-phenylpyridin-3-yl)-2-(trans-4-(N-methylmethylsulfonamido)cyclo-hexyl)acetamide]
> 10500 | 66 | > 30000 | 200 | > 22800 | 17 | NC1(c2ccc(-c3nnc(NC(=O)C[C@H]4CC[C@H](N5CCOC5=O)CC4)cc3-c3ccccc3)cc2)CC(F)(F)C1 [Example 61, N-(6-(4-(1-amino-3,3-difluorocyclobutyl)phenyl)-5-phenylpyridazin-3-yl)-2-(trans-4-(2-oxooxazolidin-3-yl)cyclohexyl)acetamide]
7800 | 440 | > 30000 | 3000 | > 27000 | 130 | CCOC(=O)N(C)[C@H]1CC[C@H](CC(=O)Nc2cnc(-c3ccc(C(C)(C)N)cc3)c(-c3ccccc3)c2)CC1 [Example A99, Ethyl (trans-4-(2-((6-(4-(2-aminopropan-2-yl)phenyl)-5-phenylpyridin-3-yl)amino)-2-oxoethyl)cyclohexyl)(methyl)carbamate]
520 | 9 | 2200 | 320 | 3900 | 10 | CC(=O)N(C)[C@H]1CC[C@H](CC(=O)Nc2cc(-c3ccsc3)c(-c3ccc([C@]4(N)C[C@](C)(O)C4)cc3)cn2)CC1 [Example 93, N-(5-(4-(trans-1-amino-3-hydroxy-3-methylcyclobutyl)phenyl)-4-(thiophen-3-yl)pyridin-2-yl)-2-(trans-4-(N-methylacetamido)cyclohexyl)acetamide]
2800 | 130 | > 16000 | 420 | 4000 | 110 | COC(=O)N(C)[C@H]1CC[C@H](CC(=O)Nc2cnc(-c3ccc(C4(N)CCC4)cc3)c(-c3ccccc3)c2)CC1 [Example A1, Methyl (trans-4-(2-((6-(4-(1-aminocyclobutyl)phenyl)-5-phenylpyridin-3-yl)amino)-2-oxoethyl)cyclohexyl)(methyl)carbamate]
6800 | 72 | > 30000 | 12000 | > 30000 | 470 | CC(=O)N(C)[C@H]1CC[C@H](CC(=O)Nc2cc(-c3ccccc3)c(-c3ccc(C(C)(C)N)cc3)nn2)CC1 [Example 30, N-(6-(4-(2-aminopropan-2-yl)phenyl)-5-phenylpyridazin-3-yl)-2-(trans-4-(N-methylacetamido)cyclohexyl)acetamide]
11000 | 440 | > 30000 | 13000 | > 30000 | 1800 | CC(=O)N(C(C)C)[C@H]1CC[C@H](CC(=O)Nc2cnc(-c3ccc(C(C)(C)N)cc3)c(-c3ccccc3)c2)CC1 [Example A44, N-(6-(4-(2-aminopropan-2-yl)phenyl)-5-phenylpyridin-3-yl)-2-(trans-4-(N-isopropylacetamido)cyclohexyl)acetamide]
840 | 59 | 3600 | 370 | 11000 | 75 | CCCC(=O)N[C@H]1CC[C@H](CC(=O)Nc2cnc(-c3ccc(C4(N)CC4)cc3)c(-c3ccccc3)c2)CC1 [Example A41, N-(trans-4-(2-((6-(4-(1-aminocyclopropyl)phenyl)-5-phenylpyridin-3-yl)amino)-2-oxoethyl)cyclohexyl)butyramide]
> 30000 | 350 | > 30000 | 11000 | > 30000 | 140 | CCC(=O)N(C)[C@H]1CC[C@H](CC(=O)Nc2cc(-c3ccsc3)c(-c3ccc(C4(N)CC4)c(F)c3)nn2)CC1 [Example A101, N-(trans-4-(2-((6-(4-(1-aminocyclopropyl)-3-fluorophenyl)-5-(thiophen-3-yl)pyridazin-3-yl)amino)-2-oxoethyl)cyclohexyl)-N-methylpropionamide]
> 30000 | 230 | > 30000 | 14000 | > 30000 | 170 | CC(=O)N(C)[C@H]1CC[C@H](CC(=O)Nc2cc(-c3ccsc3)c(-c3ccc(C4(N)CC4)c(F)c3)nn2)CC1 [Example 92, N-(6-(4-(1-aminocyclopropyl)-3-fluorophenyl)-5-(thiophen-3-yl)pyridazin-3-yl)-2-(trans-4-(N-methylacetamido)cyclohexyl)acetamide]
6300 | 190 | > 30000 | 2400 | > 30000 | 1000 | CC(C)(N)c1ccc(-c2ncc(NC(=O)C[C@H]3CC[C@H](C(=O)N4CCOCC4)CC3)cc2-c2ccccc2)cc1 [Example A46, N-(6-(4-(2-aminopropan-2-yl)phenyl)-5-phenylpyridin-3-yl)-2-(trans-4-(morpholine-4-carbonyl)cyclohexyl)acetamide]
390 | 13 | 1400 | 87 | 6100 | 8 | CCC(=O)N(C(C)C)[C@H]1CC[C@H](CC(=O)Nc2cnc(-c3ccc([C@]4(N)C[C@](C)(O)C4)cc3)c(-c3ccccc3)c2)CC1 [Example 122, N-(trans-4-(2-((6-(4-(trans-1-amino-3-hydroxy-3-methylcyclobutyl)phenyl)-5-phenylpyridin-3-yl)amino)-2-oxoethyl)cyclohexyl)-N-isopropylpropionamide]
14000 | 1100 | > 30000 | 6900 | > 30000 | 1300 | CC(=O)N[C@H]1CC[C@H](CC(=O)Nc2cnc(-c3ccc(C4(N)CCC4)cc3)c(-c3ccsc3C)c2)CC1 [Example 18, 2-(trans-4-acetamidocyclohexyl)-N-(6-(4-(1-aminocyclobutyl)phenyl)-5-(2-methylthiophen-3-yl)pyridin-3-yl)acetamide]
1400 | 26 | 5300 | 210 | 4600 | 8 | CC(C)N(C(=O)C1CC1)[C@H]1CC[C@H](CC(=O)Nc2cc(-c3ccccc3)c(-c3ccc([C@]4(N)C[C@](C)(O)C4)cc3)nn2)CC1 [Example 105, N-(trans-4-(2-((6-(4-(trans-1-amino-3-hydroxy-3-methylcyclobutyl)phenyl)-5-phenylpyridazin-3-yl)amino)-2-oxoethyl)cyclohexyl)-N-isopropylcyclopropanecarboxamide]
